Assay results: patent US20230093099A1, “COMPOUNDS AND METHODS OF TREATING CANCERS” (CULLGEN (SHANGHAI), INC., priority 2019, published 2023)

system: RS4;11 cells; assay: Cell viability assay (CellTiter-Glo) in RS4;11 cells; assay type: cell-based; conditions: Homo sapiens, 72 h; RS4;11 cells; cell viability, 3 days, CellTiter-Glo; read-out: IC50
How it was run: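 RS4;11 cells seeded at 5000 per well, exposed for 3 days to 8- or 12-point 3-fold serial dilutions. Viability read by CellTiter-Glo luminescence; IC50 fitted by nonlinear least-squares regression.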

Row | IC50 [µM] | Structure (SMILES)
1 | > 10 | CS(=O)(=O)c1ccc(-c2cccc3nc(Nc4ccc(N5CCN(CC(=O)NCCOCCOCCOCCOCCOCCNc6cccc7c6C(=O)N(C6CCC(=O)NC6=O)C7=O)CC5)cc4)nn23)cc1 (stereo not shown) [JA-129, N-(17-((2-(2,6-Dioxopiperidin-3-yl)-1,3-dioxoisoindolin-4-yl)amino)-3,6,9,12,15-pentaoxaheptadecyl)-2-(4-(4-((5-(4-(methylsulfonyl)phenyl)-[1,2,4]triazolo[1,5-a]pyridin-2-yl)amino)phenyl)piperazin-1-yl)acetamide]
2 | > 10 | Cc1ncsc1-c1ccc(CNC(=O)[C@@H]2C[C@@H](O)CN2C(=O)[C@@H](NC(=O)COCCOCCNC(=O)CN2CCC(n3cc(-c4cnc5cccc(-c6cc(F)c(CN7CCOCC7)c(F)c6)c5n4)cn3)CC2)C(C)(C)C)cc1 [JA-163, (2S,4R)-1-((S)-2-(tert-Butyl)-14-(4-(4-(8-(3,5-difluoro-4-(morpholinomethyl)phenyl)quinoxalin-2-yl)-1H-pyrazol-1-yl)piperidin-1-yl)-4,13-dioxo-6,9-dioxa-3,12-diazatetradecanoyl)-4-hydroxy-N-(4-(4-methylthiazol-5-yl)benzyl)pyrrolidine-2-carboxamide]
3 | 0.676 | CS(=O)(=O)c1ccc(-c2cccc3nc(Nc4ccc(N5CCN(CC(=O)NCCCCNc6ccc7c(c6)C(=O)N(C6CCC(=O)NC6=O)C7=O)CC5)cc4)nn23)cc1 (stereo not shown) [JA-205, N-(4-((2-(2,6-Dioxopiperidin-3-yl)-1,3-dioxoisoindolin-5-yl)amino)butyl)-2-(4-(4-((5-(4-(methylsulfonyl)phenyl)-[1,2,4]triazolo[1,5-a]pyridin-2-yl)amino)phenyl)piperazin-1-yl)acetamide]
4 | > 10 | CS(=O)(=O)c1ccc(-c2cccc3nc(Nc4ccc(N5CCN(CC(=O)NCCOCCOCCOCCOCCNc6ccc7c(c6)C(=O)N(C6CCC(=O)NC6=O)C7=O)CC5)cc4)nn23)cc1 (stereo not shown) [JA-206, N-(14-((2-(2,6-Dioxopiperidin-3-yl)-1,3-dioxoisoindolin-5-yl)amino)-3,6,9,12-tetraoxatetradecyl)-2-(4-(4-((5-(4-(methylsulfonyl)phenyl)-[1,2,4]triazolo[1,5-a]pyridin-2-yl)amino)phenyl)piperazin-1-yl)acetamide]
5 | > 10 | O=C(CN1CCC(n2cc(-c3cnc4cccc(-c5cc(F)c(CN6CCOCC6)c(F)c5)c4n3)cn2)CC1)NCCCCCCNc1cccc2c1C(=O)N(C1CCC(=O)NC1=O)C2=O (stereo not shown) [JA-147, 2-(4-(4-(8-(3,5-Difluoro-4-(morpholinomethyl)phenyl)quinoxalin-2-yl)-1H-pyrazol-1-yl)piperidin-1-yl)-N-(6-((2-(2,6-dioxopiperidin-3-yl)-1,3-dioxoisoindolin-4-yl)amino)hexyl)acetamide]

Further lines, the compound ahead of its results:

Row | Structure (SMILES) | IC50 [µM]
6 | Cc1cnc(Nc2ccc(N3CCN(CC(=O)NCCCCCC(=O)N[C@H](C(=O)N4C[C@H](O)C[C@H]4C(=O)NCc4ccc(-c5scnc5C)cc4)C(C)(C)C)CC3)cc2)nc1Nc1cccc(S(=O)(=O)NC(C)(C)C)c1 [JA-101, (2S,4R)-1-((S)-2-(6-(2-(4-(4-((4-((3-(N-(tert-Butyl)sulfamoyl)phenyl)amino)-5-methylpyrimidin-2-yl)amino)phenyl)piperazin-1-yl)acetamido)hexanamido)-3,3-dimethylbutanoyl)-4-hydroxy-N-(4-(4-methylthiazol-5-yl)benzyl)pyrrolidine-2-carboxamide] | > 10
7 | Cc1cnc(Nc2ccc(N3CCN(CC(=O)NCCCCCCCC(=O)N[C@H](C(=O)N4C[C@H](O)C[C@H]4C(=O)NCc4ccc(-c5scnc5C)cc4)C(C)(C)C)CC3)cc2)nc1Nc1cccc(S(=O)(=O)NC(C)(C)C)c1 [JA-103, (2S,4R)-1-((S)-2-(8-(2-(4-(4-((4-((3-(N-(tert-Butyl)sulfamoyl)phenyl)amino)-5-methylpyrimidin-2-yl)amino)phenyl)piperazin-1-yl)acetamido)octanamido)-3,3-dimethylbutanoyl)-4-hydroxy-N-(4-(4-methylthiazol-5-yl)benzyl)pyrrolidine-2-carboxamide] | 8.96
8 | Cc1ncsc1-c1ccc(CNC(=O)[C@@H]2C[C@@H](O)CN2C(=O)[C@@H](NC(=O)CCOCCC(=O)N2CCC(n3cc(-c4cnc5cccc(-c6cc(F)c(CN7CCOCC7)c(F)c6)c5n4)cn3)CC2)C(C)(C)C)cc1 [JA-058, (2S,4R)-1-[(2S)-2-[3-[3-[4-[4-[8-[3,5-Difluoro-4-(morpholinomethyl)phenyl]quinoxalin-2-yl]pyrazol-1-yl]-1-piperidyl]-3-oxo-propoxy]propanoylamino]-3,3-dimethyl-butanoyl]-4-hydroxy-N-[[4-(4-methylthiazol-5-yl)phenyl]methyl]pyrrolidine-2-carboxamide] | 2.52
9 | Cc1ncsc1-c1ccc(CNC(=O)[C@@H]2C[C@@H](O)CN2C(=O)[C@@H](NC(=O)CCCCCCC(=O)N2CCN(c3ccc(Nc4nc5cccc(-c6ccc(S(C)(=O)=O)cc6)n5n4)cc3)CC2)C(C)(C)C)cc1 [JA-062, (2S,4R)-1-((S)-3,3-Dimethyl-2-(8-(4-(4-((5-(4-(methylsulfonyl)phenyl)-[1,2,4]triazolo[1,5-a]pyridin-2-yl)amino)phenyl)piperazin-1-yl)-8-oxooctanamido)butanoyl)-4-hydroxy-N-(4-(4-methylthiazol-5-yl)benzyl)pyrrolidine-2-carboxamide] | > 10
10 | CS(=O)(=O)c1ccc(-c2cccc3nc(Nc4ccc(N5CCN(C(=O)CCOCCNc6cccc7c6C(=O)N(C6CCC(=O)NC6=O)C7=O)CC5)cc4)nn23)cc1 (stereo not shown) [JA-079, 2-(2,6-Dioxo-piperidin-3-yl)-4-{2-[3-(4-{4-[5-(4-methanesulfonyl-phenyl)-[1,2,4]triazolo[1,5-a]pyridin-2-ylamino]-phenyl}-piperazin-1-yl)-3-oxo-propoxy]-ethylamino}-isoindole-1,3-dione] | 0.479
11 | Cc1cnc(Nc2ccc(N3CCN(C(=O)CNc4cccc5c4C(=O)N(C4CCC(=O)NC4=O)C5=O)CC3)cc2)nc1Nc1cccc(S(=O)(=O)NC(C)(C)C)c1 (stereo not shown) [JA-006, N-(tert-Butyl)-3-((2-((4-(4-((2-(2,6-dioxopiperidin-3-yl)-1,3-dioxoisoindolin-4-yl)glycyl)piperazin-1-yl)phenyl)amino)-5-methylpyrimidin-4-yl)amino)benzenesulfonamide] | > 10
12 | Cc1ncsc1-c1ccc(CNC(=O)[C@@H]2C[C@@H](O)CN2C(=O)[C@@H](NC(=O)CCOCCOCCOCCOCCC(=O)N2CCC(n3cc(-c4cnc5cccc(-c6cc(F)c(CN7CCOCC7)c(F)c6)c5n4)cn3)CC2)C(C)(C)C)cc1 [JA-061, (2S,4R)-1-[(2S)-2-[3-[2-[2-[2-[3-[4-[4-[8-[3,5-Difluoro-4-(morpholinomethyl)phenyl]quinoxalin-2-yl]pyrazol-1-yl]-1-piperidyl]-3-oxo-propoxy]ethoxy]ethoxy]ethoxy]propanoylamino]-3,3-dimethyl-butanoyl]-4-hydroxy-N-[[4-(4-methylthiazol-5-yl)phenyl]methyl]pyrrolidine-2-carboxamide] | > 10
13 | CS(=O)(=O)c1ccc(-c2cccc3nc(Nc4ccc(N5CCN(C(=O)CNc6cccc7c6C(=O)N(C6CCC(=O)NC6=O)C7=O)CC5)cc4)nn23)cc1 (stereo not shown) [JA-014, 2-(2,6-Dioxo-piperidin-3-yl)-4-[2-(4-{4-[5-(4-methanesulfonyl-phenyl)-[1,2,4]triazolo[1,5-a]pyridin-2-ylamino]-phenyl}-piperazin-1-yl)-2-oxo-ethylamino]-isoindole-1,3-dione] | 3.34
